Assay results published in PubChem BioAssay AID588388 (NMMLSC, 2011).
Activity calls are given as the source filed them.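 The calls were made as follows: active = half-effect dose EC50 at most 10 µM and% response shifting 30% or more across doses, valid fit; inactive = the rest.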

Molecular target: GTPase HRas (Homo sapiens) (UniProt P01112)
Assay: wild-type H-Ras GTP-binding inhibitors, SAR follow-up, biochemical, multiplex bead flow cytometry, round 1 (AID 588388)
Settings: GST-H-Ras beads, Bodipy-GTP binding, EDTA; for % response (lower = inhibition): at 100 µM (top of the series)

Chain of GTPase HRas (Homo sapiens) (P01112 whole entry, looked up): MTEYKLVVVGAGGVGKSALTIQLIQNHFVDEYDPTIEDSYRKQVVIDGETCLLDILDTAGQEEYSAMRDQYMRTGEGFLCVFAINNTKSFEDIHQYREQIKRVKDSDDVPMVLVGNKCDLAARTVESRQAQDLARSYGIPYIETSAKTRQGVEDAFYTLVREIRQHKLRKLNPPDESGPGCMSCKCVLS

Compound	% response (lower = inhibition)	EC50
CCOC(=O)c1c(NC(=S)Nc2ccccc2)sc2c1CC(C)(C)OC2	inactive	
CCOC(=O)c1c(NC(=O)Nc2ccc(C)cc2)sc2c1CCN(C)C2	inactive	
CC1(C)CCc2sc(NC(=S)NC(=O)c3ccccc3)c(C(=O)O)c2C1		0.067 µM
CC1(C)Cc2c(sc(NC(=S)NC(=O)c3ccc(Br)cc3)c2C(=O)O)CO1		0.257 µM
CC1(C)Cc2c(sc(NC(=S)Nc3ccccc3)c2C(=O)O)CO1	inactive	
Cc1ccc(Nc2nc3sc4c(c3c(=O)o2)CCN(C)C4)cc1	inactive	
CCOC(=O)c1c(NC(=O)Nc2ccc(F)cc2)sc2c1CCN(C)C2	inactive	
CCOC(=O)c1c(NC(=O)NC(C)(C)C)sc2c1CCN(C)C2	inactive	
COC(=O)c1c(N)sc2c1CC(C)(C)OC2	inactive	
CC1(C)Cc2c(sc(NC(=S)NC(=O)c3ccccc3)c2C(=O)O)CO1		0.078 µM
CC1Cc2c(sc(NC(=S)NC(=O)c3ccccc3)c2C(=O)O)CO1 (configuration not stated)		0.054 µM
CCOC(=O)c1c(NC(=S)NC(=O)c2ccccc2)sc2ccccc12	inactive	
CN1CCc2c(sc3nc(Nc4ccc(F)cc4)oc(=O)c23)C1	inactive	
CC1(C)Cc2c(sc(NC(=S)NC(=O)c3cccc(Br)c3)c2C(=O)O)CO1	inactive	
CN1CCc2c(sc(NC(=O)Nc3ccc(F)cc3)c2C(=O)O)C1	inactive	
Cc1ccc(NC(=O)Nc2sc3c(c2C(=O)O)CCN(C)C3)cc1	inactive	
COc1ccc(C(=O)NC(=S)Nc2sc3c(c2C(=O)O)CC(C)(C)OC3)cc1		0.108 µM
CC1(C)Cc2c(sc(NC(=S)NC(=O)c3ccccc3F)c2C(=O)O)CO1		0.05 µM
CC(C)(C)OC(=O)c1c(NC(=S)NC(=O)c2ccccc2)sc2c1CCOC2	inactive	
CC1(C)Cc2c(sc(NC(=O)NC(=O)c3ccccc3)c2C(=O)O)CO1		0.149 µM
COc1cccc(C(=O)NC(=S)Nc2sc3c(c2C(=O)O)CC(C)(C)OC3)c1		0.03 µM
O=C(NC(=S)Nc1sc2c(c1C(=O)O)CCOC2)c1ccccc1		0.033 µM
CC1(C)Cc2c(sc(NC(=O)Cc3ccccc3)c2C(=O)O)CO1	inactive	
CC1(C)Cc2c(sc(NC(=S)NC(=O)c3ccccc3Br)c2C(=O)O)CO1		0.046 µM
COC(=O)c1c(NC(=S)NC(=O)c2ccccc2)sc2c1CC(C)(C)OC2	inactive	
CC1(C)Cc2c(sc(NC(=S)NC(=O)c3cccc(F)c3)c2C(=O)O)CO1		0.29 µM
CCOC(=O)c1c(N)sc2ccccc12	inactive	
